Source: US20130097725A1, “SOYBEAN NODULATION FACTOR RECEPTOR PROTEINS, ENCODING NUCLEIC ACIDS AND USES THEREFOR” (The University of Queensland, priority 2005, published 2013)
Marks after values point to notes of the source that are not given here.

Legend:
[1] = system: soybean plants (nod49, nod139, Bragg); assay: Interaction of B. japonicum inoculum titer and Nod Factor on nodule number; type: in vivo, Glycine max; details: for nodule number: nod49, Plus NF 10^−8 M, 35 days
Text: We tested this phenomenon by inoculating nod49 plants with different titers of B. japonicum CB1809 and observed increased partial nodulation success per plant with elevated rhizobial concentration. […] Since infection thread formation is essential for the progression of early CCDs (FIG. 4B), mutations in GmNFR1α result in non-nodulation. Thus GmNFR1α mutants, when exposed to high NF levels, form nodules via normal infection, showing that GmNFR1β suffices for all early nodule ontogeny steps.

[2] = system: soybean plants (nod49, nod139, Bragg); assay: as above; type: in vivo, Glycine max; details: Plus NF 10^−8 M, 35 days

With NodV-MeFuc [NF] the nodule number ([1]; B. japonicum CB1809 10^3 cfu·ml^−1) was 0.0 ^a, the nodule number ([1]; B. japonicum CB1809 10^7 cfu·ml^−1) was 0.7 ± 0.2 ^b and the nodule number ([1]; B. japonicum CB1809 10^10 cfu·ml^−1) was 2.3 ± 0.4 ^c. For the same substance, the “nodulation on addition of NF to the nutrient medium” value ([1]; nod49 mutant plants, NF 10 nM) was “significantly increased”, the nodule number ([2]; Bragg, B. japonicum CB1809 10^3 cfu·ml^−1) was 82.5 ± 5.0 ^d and the nodule number ([2]; Bragg, B. japonicum CB1809 10^7 cfu·ml^−1) was 101.4 ± 8.5 ^e. For the same substance, the nodule number ([2]; Bragg, B. japonicum CB1809 10^10 cfu·ml^−1) was 104.2 ± 6.9 ^e, the nodule number ([2]; nod139, B. japonicum CB1809 10^3 cfu·ml^−1) was 0.0 ^a and the nodule number ([2]; nod139, B. japonicum CB1809 10^7 cfu·ml^−1) was 0.0 ^a. The nodule number ([2]; nod139, B. japonicum CB1809 10^10 cfu·ml^−1) was 0.2 ± 0.2 ^a.
